From ChEMBL document CHEMBL1201861, “Genomics of Drug Sensitity in Cancer screening data, Wellcome Trust Sanger Institute”

How the values were obtained:
Test in all cases: cells
Assay type in all cases: functional, cell-based, Homo sapiens
NCI-H446 = test system: NCI-H446;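 note: growth inhibition of NCI-H446 cells determined by a cell viability assay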
Description: SANGER: Inhibition of human NCI-H446 cell growth in a cell viability assay.

NCI-H1581 = test system: NCI-H1581;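 note: cell growth inhibition read out by a viability assay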
Description: SANGER: Inhibition of human NCI-H1581 cell growth in a cell viability assay.

LXF-289 cell line = test system: LXF-289 cell line
Description: SANGER: Inhibition of human LXF-289 cell growth in a cell viability assay.

ES3 = test system: ES3;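 note: growth inhibition of ES3 cells, read out with a cell viability assay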
Description: SANGER: Inhibition of human ES3 cell growth in a cell viability assay.

Becker = test system: Becker;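 note: growth inhibition of Becker cells, read out with a cell viability assay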
Description: SANGER: Inhibition of human Becker cell growth in a cell viability assay.

ML-2 = test system: ML-2;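 note: growth inhibition of ML-2 cells, measured with a cell viability readout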
Description: SANGER: Inhibition of human ML-2 cell growth in a cell viability assay.

COLO-684 = test system: COLO-684
Description: SANGER: Inhibition of human COLO-684 cell growth in a cell viability assay.

LU-139 = test system: LU-139
Description: SANGER: Inhibition of human LU-139 cell growth in a cell viability assay.

NB10 = test system: NB10;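 note: growth inhibition of NB10 cells, read out by a cell viability assay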
Description: SANGER: Inhibition of human NB10 cell growth in a cell viability assay.

NB17 = details: Homo sapiens, NB17;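 note: growth inhibition of NB17 cells, read out with a cell viability assay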
Description: SANGER: Inhibition of human NB17 cell growth in a cell viability assay.

NCI-H23 = test system: NCI-H23;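 note: cell viability assay measuring growth inhibition of NCI-H23 cells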
Description: SANGER: Inhibition of human NCI-H23 cell growth in a cell viability assay.

KP-N-YS = test system: KP-N-YS;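 note: cell viability assay measuring inhibition of cell line growth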
Description: SANGER: Inhibition of human KP-N-YS cell growth in a cell viability assay.

697 = test system: 697
Description: SANGER: Inhibition of human 697 cell growth in a cell viability assay.

LS-1034 = test system: LS-1034
Description: SANGER: Inhibition of human LS-1034 cell growth in a cell viability assay.

HH = test system: HH
Description: SANGER: Inhibition of human HH cell growth in a cell viability assay.

no-11 = test system: no-11;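 note: growth inhibition of human NO-11 cells, read out with a cell viability assay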
Description: SANGER: Inhibition of human no-11 cell growth in a cell viability assay.

KARPAS-299 = test system: KARPAS-299
Description: SANGER: Inhibition of human KARPAS-299 cell growth in a cell viability assay.

KURAMOCHI = test system: KURAMOCHI;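 note: growth inhibition of KURAMOCHI cells, read out with a cell viability assay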
Description: SANGER: Inhibition of human KURAMOCHI cell growth in a cell viability assay.

A704 = test system: A704;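 note: growth inhibition of human A704 cells, read out with a cell viability assay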
Description: SANGER: Inhibition of human A704 cell growth in a cell viability assay.

LB2518-MEL = test system: LB2518-MEL;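 note: growth inhibition of human LB2518-MEL cells, measured with a cell viability assay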
Description: SANGER: Inhibition of human LB2518-MEL cell growth in a cell viability assay.

SW 954 = test system: SW 954;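 note: growth inhibition of SW954 human cancer cells, read out as cell viability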
Description: SANGER: Inhibition of human SW954 cell growth in a cell viability assay.

NCI-H82 = test system: NCI-H82;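 note: growth inhibition of NCI-H82 cells, measured with a cell viability readout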
Description: SANGER: Inhibition of human NCI-H82 cell growth in a cell viability assay.

EW-1 = test system: EW-1;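 note: growth inhibition of the human EW-1 cell line, read out by a cell viability assay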
Description: SANGER: Inhibition of human EW-1 cell growth in a cell viability assay.

D-263MG = test system: D-263MG
Description: SANGER: Inhibition of human D-263MG cell growth in a cell viability assay.

MZ7-mel = test system: MZ7-mel;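 note: growth inhibition of human MZ7-mel cells, measured by a cell viability assay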
Description: SANGER: Inhibition of human MZ7-mel cell growth in a cell viability assay.

BV-173 = test system: BV-173
Description: SANGER: Inhibition of human BV-173 cell growth in a cell viability assay.

TE-1 = test system: TE-1;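 note: growth inhibition of the human TE-1 cell line, read out with a cell viability assay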
Description: SANGER: Inhibition of human TE-1 cell growth in a cell viability assay.

VA-ES-BJ = test system: VA-ES-BJ;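 note: growth inhibition of the VA-ES-BJ cell line, read out by a cell viability assay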
Description: SANGER: Inhibition of human VA-ES-BJ cell growth in a cell viability assay.

HCE-T = test system: HCE-T;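 note: cell viability assay read-out, reporting inhibition of HCE-T cell growth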
Description: SANGER: Inhibition of human HCE-T cell growth in a cell viability assay.

MLMA = test system: MLMA;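 note: growth inhibition of MLMA cells (human), determined through a cell viability readout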
Description: SANGER: Inhibition of human MLMA cell growth in a cell viability assay.

KNS-81-FD = test system: KNS-81-FD;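 note: growth inhibition of KNS-81-FD cells, read out with a cell viability assay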
Description: SANGER: Inhibition of human KNS-81-FD cell growth in a cell viability assay.

A253 cell line = test system: A253 cell line;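 note: growth inhibition of A253 cells, read out with a cell viability assay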
Description: SANGER: Inhibition of human A253 cell growth in a cell viability assay.

JVM-2 = test system: JVM-2;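 note: growth inhibition of JVM-2 cells determined by a cell viability assay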
Description: SANGER: Inhibition of human JVM-2 cell growth in a cell viability assay.

LS-123 = test system: LS-123
Description: SANGER: Inhibition of human LS-123 cell growth in a cell viability assay.

OCI-AML2 = test system: OCI-AML2;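 note: growth inhibition of OCI-AML2 cells, read out with a cell viability assay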
Description: SANGER: Inhibition of human OCI-AML2 cell growth in a cell viability assay.

OVCAR-4 = test system: OVCAR-4;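 note: growth inhibition of human OVCAR-4 cells, measured with a cell viability assay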
Description: SANGER: Inhibition of human OVCAR-4 cell growth in a cell viability assay.

NCI-H1648 = test system: NCI-H1648;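 note: cell viability assay measuring inhibition of NCI-H1648 cell growth, from the Sanger screening data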
Description: SANGER: Inhibition of human NCI-H1648 cell growth in a cell viability assay.

NMC-G1 = test system: NMC-G1;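 note: growth inhibition of the NMC-G1 cell line, measured with a cell viability read-out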
Description: SANGER: Inhibition of human NMC-G1 cell growth in a cell viability assay.

SCC-15 = test system: SCC-15;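 note: growth inhibition of SCC-15 cells, read out with a cell viability assay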
Description: SANGER: Inhibition of human SCC-15 cell growth in a cell viability assay.

NCI-H69 = test system: NCI-H69;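 note: growth inhibition of the cell line, read out with a cell viability assay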
Description: SANGER: Inhibition of human NCI-H69 cell growth in a cell viability assay.

BB30-HNC = test system: BB30-HNC;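 note: growth inhibition of the cultured cell line, read out by a cell viability assay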
Description: SANGER: Inhibition of human BB30-HNC cell growth in a cell viability assay.

NCI-H1650 = test system: NCI-H1650;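 note: growth inhibition of human NCI-H1650 cells measured by a cell viability assay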
Description: SANGER: Inhibition of human NCI-H1650 cell growth in a cell viability assay.

MHH-NB-11 = test system: MHH-NB-11;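 note: growth inhibition of human MHH-NB-11 cells, read out by a cell viability assay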
Description: SANGER: Inhibition of human MHH-NB-11 cell growth in a cell viability assay.

ES5 = test system: ES5;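 note: growth inhibition of human ES5 cells, read out by a cell viability assay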
Description: SANGER: Inhibition of human ES5 cell growth in a cell viability assay.

HD-MY-Z = test system: HD-MY-Z;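 note: growth inhibition of HD-MY-Z cells, read out with a cell viability assay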
Description: SANGER: Inhibition of human HD-MY-Z cell growth in a cell viability assay.

LAMA-84 = test system: LAMA-84;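 note: growth inhibition of LAMA-84 cells, read out with a cell viability assay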
Description: SANGER: Inhibition of human LAMA-84 cell growth in a cell viability assay.

ES8 = test system: ES8;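 note: growth inhibition of human ES8 cells, read out with a cell viability assay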
Description: SANGER: Inhibition of human ES8 cell growth in a cell viability assay.

Calu-6 = test system: Calu-6;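 note: growth of human Calu-6 cells, read out by a cell viability assay, IC50 marking inhibition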
Description: SANGER: Inhibition of human Calu-6 cell growth in a cell viability assay.

KMOE-2 = details: kmoe-2;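 note: growth inhibition of human KMOE-2 cells, read out with a cell viability assay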
Description: SANGER: Inhibition of human KMOE-2 cell growth in a cell viability assay.

CC(C)CCN1c2nc(Nc3cc(F)c(O)c(F)c3)ncc2N(C)C(=O)C1C (stereo not drawn)
IC50 (NCI-H446; Homo sapiens, NCI-H446): 3.68 µM | IC50 (NCI-H1581; Homo sapiens, NCI-H1581): > 5 µM | IC50 (LXF-289 cell line; Homo sapiens, LXF-289): 4.4 µM | IC50 (ES3; Homo sapiens, ES3): > 5 µM | IC50 (Becker; Homo sapiens, Becker): 2.66 µM | IC50 (ML-2; Homo sapiens, ML-2): 0.856 µM | IC50 (COLO-684; Homo sapiens, COLO-684): > 5 µM | IC50 (LU-139; Homo sapiens, LU-139): 0.85 µM | IC50 (NB10; Homo sapiens, NB10): 1.78 µM | IC50 (NB17): > 5 µM | IC50 (NCI-H23; Homo sapiens, NCI-H23): > 5 µM | IC50 (KP-N-YS; Homo sapiens, KP-N-YS): 0.682 µM | IC50 (697; Homo sapiens): 2.02 µM | IC50 (LS-1034; Homo sapiens, LS-1034): > 5 µM | IC50 (HH; Homo sapiens, HH): 2.8 µM | IC50 (no-11; Homo sapiens): > 5 µM | IC50 (KARPAS-299; Homo sapiens, KARPAS-299): > 5 µM | IC50 (KURAMOCHI; Homo sapiens, KURAMOCHI): > 5 µM | IC50 (A704; Homo sapiens, A704): > 5 µM | IC50 (LB2518-MEL; Homo sapiens, LB2518-MEL): > 5 µM | IC50 (SW 954; Homo sapiens, SW 954): 2.86 µM | IC50 (NCI-H82; Homo sapiens, NCI-H82): > 5 µM | IC50 (EW-1; Homo sapiens, EW-1): 2.75 µM | IC50 (D-263MG; Homo sapiens, D-263MG): > 5 µM | IC50 (MZ7-mel; Homo sapiens, MZ7-mel): > 5 µM | IC50 (BV-173; Homo sapiens, BV-173): 1.99 µM | IC50 (TE-1; Homo sapiens, TE-1): > 5 µM | IC50 (VA-ES-BJ; Homo sapiens, VA-ES-BJ): > 5 µM | IC50 (HCE-T; Homo sapiens, HCE-T): > 5 µM | IC50 (MLMA; Homo sapiens, MLMA): > 5 µM | IC50 (KNS-81-FD; Homo sapiens, KNS-81-FD): > 5 µM | IC50 (A253 cell line; Homo sapiens, A253): > 5 µM | IC50 (JVM-2; Homo sapiens, JVM-2): > 5 µM | IC50 (LS-123; Homo sapiens, LS-123): > 5 µM | IC50 (OCI-AML2; Homo sapiens, OCI-AML2): > 5 µM | IC50 (OVCAR-4; Homo sapiens, OVCAR-4): > 5 µM | IC50 (NCI-H1648; Homo sapiens, NCI-H1648): > 5 µM | IC50 (NMC-G1; Homo sapiens, NMC-G1): > 5 µM | IC50 (SCC-15; Homo sapiens, SCC-15): > 5 µM | IC50 (NCI-H69; Homo sapiens, NCI-H69): 2.72 µM | IC50 (BB30-HNC; Homo sapiens, BB30-HNC): > 5 µM | IC50 (NCI-H1650; Homo sapiens, NCI-H1650): > 5 µM | IC50 (MHH-NB-11; Homo sapiens, MHH-NB-11): > 5 µM | IC50 (ES5; Homo sapiens, ES5): 2.24 µM | IC50 (HD-MY-Z; Homo sapiens, HD-MY-Z): 3.37 µM | IC50 (LAMA-84; Homo sapiens, LAMA-84): 1.13 µM | IC50 (ES8; Homo sapiens, ES8): 1.88 µM | IC50 (Calu-6; Homo sapiens, Calu-6): > 5 µM

Cn1cnc2c(F)c(Nc3ccc(Br)cc3Cl)c(C(=O)NOCCO)cc21 [SELUMETINIB]
IC50 (NCI-H446; Homo sapiens, NCI-H446): > 4 µM | IC50 (NCI-H1581; Homo sapiens, NCI-H1581): > 4 µM | IC50 (LXF-289 cell line; Homo sapiens, LXF-289): > 4 µM | IC50 (ES3; Homo sapiens, ES3): > 4 µM | IC50 (Becker; Homo sapiens, Becker): > 4 µM | IC50 (ML-2; Homo sapiens, ML-2): 0.294 µM | IC50 (COLO-684; Homo sapiens, COLO-684): > 4 µM | IC50 (LU-139; Homo sapiens, LU-139): > 4 µM | IC50 (NB10; Homo sapiens, NB10): > 4 µM | IC50 (NB17): > 4 µM | IC50 (NCI-H23; Homo sapiens, NCI-H23): > 4 µM | IC50 (KP-N-YS; Homo sapiens, KP-N-YS): > 4 µM | IC50 (697; Homo sapiens): > 4 µM | IC50 (LS-1034; Homo sapiens, LS-1034): > 4 µM | IC50 (HH; Homo sapiens, HH): > 4 µM | IC50 (no-11; Homo sapiens): > 4 µM | IC50 (KARPAS-299; Homo sapiens, KARPAS-299): > 4 µM | IC50 (KURAMOCHI; Homo sapiens, KURAMOCHI): > 4 µM | IC50 (A704; Homo sapiens, A704): > 4 µM | IC50 (LB2518-MEL; Homo sapiens, LB2518-MEL): 0.0938 µM | IC50 (SW 954; Homo sapiens, SW 954): 0.896 µM | IC50 (NCI-H82; Homo sapiens, NCI-H82): > 4 µM | IC50 (EW-1; Homo sapiens, EW-1): > 4 µM | IC50 (D-263MG; Homo sapiens, D-263MG): 1.18 µM | IC50 (MZ7-mel; Homo sapiens, MZ7-mel): > 4 µM | IC50 (BV-173; Homo sapiens, BV-173): 0.748 µM | IC50 (TE-1; Homo sapiens, TE-1): > 4 µM | IC50 (VA-ES-BJ; Homo sapiens, VA-ES-BJ): > 4 µM | IC50 (HCE-T; Homo sapiens, HCE-T): 0.971 µM | IC50 (MLMA; Homo sapiens, MLMA): > 4 µM | IC50 (KNS-81-FD; Homo sapiens, KNS-81-FD): > 4 µM | IC50 (A253 cell line; Homo sapiens, A253): > 4 µM | IC50 (JVM-2; Homo sapiens, JVM-2): > 4 µM | IC50 (LS-123; Homo sapiens, LS-123): 3.62 µM | IC50 (OCI-AML2; Homo sapiens, OCI-AML2): > 4 µM | IC50 (OVCAR-4; Homo sapiens, OVCAR-4): > 4 µM | IC50 (NMC-G1; Homo sapiens, NMC-G1): > 4 µM | IC50 (SCC-15; Homo sapiens, SCC-15): > 4 µM | IC50 (NCI-H69; Homo sapiens, NCI-H69): > 4 µM | IC50 (BB30-HNC; Homo sapiens, BB30-HNC): 2.71 µM | IC50 (NCI-H1650; Homo sapiens, NCI-H1650): > 4 µM | IC50 (MHH-NB-11; Homo sapiens, MHH-NB-11): > 4 µM | IC50 (ES5; Homo sapiens, ES5): > 4 µM | IC50 (HD-MY-Z; Homo sapiens, HD-MY-Z): > 4 µM | IC50 (LAMA-84; Homo sapiens, LAMA-84): 0.456 µM | IC50 (ES8; Homo sapiens, ES8): > 4 µM | IC50 (Calu-6; Homo sapiens, Calu-6): > 4 µM

BLEOMYCIN
IC50 (NCI-H446; nci-h446): 18.9 µM | IC50 (NCI-H1581; nci-h1581): 110 µM | IC50 (LXF-289 cell line; lxf-289): 0.644 µM | IC50 (ES3; es3): 1.61 µM | IC50 (Becker; becker): 26.9 µM | IC50 (ML-2; ml-2): 0.132 µM | IC50 (COLO-684; colo-684): 237 µM | IC50 (LU-139; lu-139): 3440 µM | IC50 (NB10; nb10): 13.8 µM | IC50 (NCI-H23; nci-h23): 2.47 µM | IC50 (KP-N-YS; kp-n-ys): 30.3 µM | IC50 697: 1.58 µM | IC50 (LS-1034; ls-1034): 35.4 µM | IC50 (HH; hh): 2.29 µM | IC50 (no-11): 85.6 µM | IC50 (KARPAS-299; karpas-299): 27.2 µM | IC50 (KMOE-2): 544 µM | IC50 (KURAMOCHI; kuramochi): 2.04 µM | IC50 (A704; a704): 10.6 µM | IC50 (LB2518-MEL; lb2518-mel): 0.182 µM | IC50 (SW 954; sw 954): 0.00957 µM | IC50 (NCI-H82; nci-h82): 225 µM | IC50 (EW-1; ew-1): 1.82 µM | IC50 (D-263MG; d-263mg): 142 µM | IC50 (MZ7-mel; mz7-mel): 0.13 µM | IC50 (BV-173; bv-173): 0.855 µM | IC50 (TE-1; te-1): 6.43 µM | IC50 (VA-ES-BJ; va-es-bj): 0.26 µM | IC50 (HCE-T; hce-t): 2.83 µM | IC50 (MLMA; mlma): 0.87 µM | IC50 (KNS-81-FD; kns-81-fd): 664 µM | IC50 (A253 cell line; a253): 2.86 µM | IC50 (JVM-2; jvm-2): 0.572 µM | IC50 (LS-123; ls-123): 23.4 µM | IC50 (OCI-AML2; oci-aml2): 2.26 µM | IC50 (OVCAR-4; ovcar-4): 4.41 µM | IC50 (NCI-H1648; nci-h1648): 20.3 µM | IC50 (NMC-G1; nmc-g1): 0.0119 µM | IC50 (SCC-15; scc-15): 27.6 µM | IC50 (NCI-H69; nci-h69): 104 µM | IC50 (BB30-HNC; bb30-hnc): 0.0163 µM | IC50 (NCI-H1650; nci-h1650): 0.499 µM | IC50 (MHH-NB-11; mhh-nb-11): 2.01 µM | IC50 (ES5; es5): 0.505 µM | IC50 (HD-MY-Z; hd-my-z): 0.56 µM | IC50 (LAMA-84; lama-84): 4.29 µM | IC50 (ES8; es8): 1.4 µM | IC50 (Calu-6; calu-6): 7.67 µM
